In brackets after ≈: the same amount, converted by molar mass.

This passage reports MIC results from patent CN102503942A, “一种氟喹诺酮衍生物及其制备和药物应用” (Individual, priority 2011, dated 2012).

For the assay, the system named is Staphylococcus aureus, ATCC 25923 (金黄色葡萄球菌,ATCC 25923). The assay is described as follows: MIC by broth microdilution (微量肉汤稀释法). The class given is cell-based. The conditions noted are these: ATCC25923, 16 h, MH broth, pH 7.2~7.4, 35℃, 16~20 h. In general terms: In broth dilution the organism is exposed to a series of concentrations in liquid medium.
On to `CC1COc2c(N3CCN(C)CC3)c(F)cc3c(=O)c(C(=O)O)cn1c23` (centres unmarked) [氧氟沙星, reference compound], for which the MIC was found to be 0.3 µg/mL (≈ 0.83 µM). As for `COc1c(N2CCN3CCCC3C2)c(F)cc2c(=O)c(C(=O)O)cn(C3CC3)c12` (centres unmarked) [例子2, 7-(六氢吡咯并[1,2-a]吡嗪基)-1-环丙基-6-氟-1,4-二氢-8-甲氧基-4-氧代-3-喹啉羧酸], the minimum inhibitory concentration (MIC) is less than 0.1 µg/mL.

Regarding `COc1c(N2CCN3CCNC3C2)c(F)cc2c(=O)c(C(=O)O)cn(C3CC3)c12` (centres unmarked) [例子4, 7-(六氢咪唑并[1,2-a]吡嗪基)-1-环丙基-6-氟-1,4-二氢-8-甲氧基-4-氧代-3-喹啉羧酸], the MIC is less than 0.1 µg/mL. With `COc1c(N2CCN3CCCCC3C2)c(F)cc2c(=O)c(C(=O)O)cn(C3CC3)c12` (centres unmarked) [例子1, 7-(八氢-2H-吡啶并[1,2-a]吡嗪基)-1-环丙基-6-氟-1,4-二氢-8-甲氧基-4-氧代-3-喹啉羧酸] the figure was less than 0.3 µg/mL. For `COc1c(N2CCN3CCNCC3C2)c(F)cc2c(=O)c(C(=O)O)cn(C3CC3)c12` (centres unmarked) [例子3, 7-(八氢-2H-吡嗪并[1,2-a]吡嗪基)-1-环丙基-6-氟-1,4-二氢-8-甲氧基-4-氧代-3-喹啉羧酸] the value was less than 0.3 µg/mL.

What is called MIC is the lowest concentration found to suppress growth. A lower MIC goes with inhibition by little substance.
